Here are results for 22 compounds from patent US11759462B2, “Spirocyclic compounds as tryptophan hydroxylase inhibitors” (priority 2013, dated 2023).

The target in one experiment is T1, Recombinant human TPH1 (MBP tagged) (Homo sapiens, UniProt P17752).
T1 construct: cloning full length human TPH1 cDNA in to a bacterial pMAL-c5E expression vector; made in house; host or cells: E. coli BL21 (DE3)
T1 sequence (P17752 1-444): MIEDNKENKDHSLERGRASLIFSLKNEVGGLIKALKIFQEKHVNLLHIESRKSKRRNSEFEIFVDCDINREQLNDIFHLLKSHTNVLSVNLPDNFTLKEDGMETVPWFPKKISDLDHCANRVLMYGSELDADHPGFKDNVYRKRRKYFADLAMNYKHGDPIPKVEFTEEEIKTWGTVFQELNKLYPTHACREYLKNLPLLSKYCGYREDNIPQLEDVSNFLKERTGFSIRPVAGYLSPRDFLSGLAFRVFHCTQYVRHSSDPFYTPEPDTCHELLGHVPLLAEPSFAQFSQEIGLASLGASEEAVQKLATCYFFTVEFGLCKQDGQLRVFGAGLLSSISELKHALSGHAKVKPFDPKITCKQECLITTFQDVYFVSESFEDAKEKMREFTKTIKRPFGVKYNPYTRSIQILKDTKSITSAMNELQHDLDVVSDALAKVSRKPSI
The experiment can be described thus: TPH1 in vitro inhibition assay (kinetic fluorescence). The class given is biochemical. Conditions: TPH1 Range (TPH1 inhibition IC50). In a few lines: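 Final mix: 15 nM MBP-TPH1, 30 μM Trp, 36 μM 6-methyltetrahydropterin, 25 μM ferrous ammonium sulfate, 50 mM MES pH 7.1, 1% DMSO, room temperature.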
Turning to `Nc1nc(O[C@H](c2ccc(-c3ccc4c(c3)CCC(=O)N4)cc2)C(F)(F)F)cc(N2CCC3(CC2)CN[C@H](C(=O)O)C3)n1` [Example 55v, (S)-8-(2-amino-6-((R)-2,2,2-trifluoro-1-(4-(2-oxo-1,2,3,4-tetrahydroquinolin-6-yl)phenyl)ethoxy)pyrimidin-4-yl)-2,8-diazaspiro[4.5]decane-3-carboxylic acid], the IC50 (commonly the concentration that inhibits the measured activity by half) is under 50 nM.

For the compound `Nc1nc(O[C@H](c2ccc(-c3ccc4[nH]ncc4c3)cc2)C(F)(F)F)cc(N2CCC3(CC2)CN[C@H](C(=O)O)C3)n1` [Example 55w, (S)-8-(6-((R)-1-(4-(1H-indazol-5-yl)phenyl)-2,2,2-trifluoroethoxy)-2-aminopyrimidin-4-yl)-2,8-diazaspiro[4.5]decane-3-carboxylic acid], the IC50 is under 50 nM.

The experiment is the same for the next values; noted with them: read-out: TPH1 Range (TPH1 inhibition IC50).
In the case of `Nc1nc(O[C@H](c2ccc(-c3ccc4sncc4c3)cc2)C(F)(F)F)cc(N2CCC3(CC2)CN[C@H](C(=O)O)C3)n1` [Example 55j, (S)-8-(2-amino-6-((R)-1-(4-(benzo[d]isothiazol-5-yl)phenyl)-2,2,2-trifluoroethoxy)pyrimidin-4-yl)-2,8-diazaspiro[4.5]decane-3-carboxylic acid], the IC50 fell in the range of 50 to 300 nM.

In the case of `Nc1nc(O[C@H](c2ccc(-c3ccc4ncnn4c3)cc2)C(F)(F)F)cc(N2CCC3(CC2)CN[C@H](C(=O)O)C3)n1` [Example 55l, (S)-8-(6-((R)-1-(4-([1,2,4]triazolo[1,5-a]pyridin-6-yl)phenyl)-2,2,2-trifluoroethoxy)-2-aminopyrimidin-4-yl)-2,8-diazaspiro[4.5]decane-3-carboxylic acid], the IC50 was 50 to 300 nM. Consider `Nc1nc(O[C@H](c2ccc(-c3ccc4ccccc4c3)cc2)C(F)(F)F)cc(N2CCC3(CC2)CN[C@H](C(=O)O)C3)n1` [Example 55m, (S)-8-(2-amino-6-((R)-2,2,2-trifluoro-1-(4-(naphthalen-2-yl)phenyl)ethoxy)pyrimidin-4-yl)-2,8-diazaspiro[4.5]decane-3-carboxylic acid], for which the IC50 is under 50 nM. On to `COc1cc(-c2ccc([C@@H](Oc3cc(N4CCC5(CC4)CN[C@H](C(=O)O)C5)nc(N)n3)C(F)(F)F)cc2)ccc1C` [Example 55n, (S)-8-(2-amino-6-((R)-2,2,2-trifluoro-1-(3′-methoxy-4′-methyl-[1,1′-biphenyl]-4-yl)ethoxy)pyrimidin-4-yl)-2,8-diazaspiro[4.5]decane-3-carboxylic acid], for which the IC50 was 300 to 3000 nM. On to `COc1cc(C)cc(-c2ccc([C@@H](Oc3cc(N4CCC5(CC4)CN[C@H](C(=O)O)C5)nc(N)n3)C(F)(F)F)cc2)c1` [Example 55o, (S)-8-(2-amino-6-((R)-2,2,2-trifluoro-1-(3′-methoxy-5′-methyl-[1,1′-biphenyl]-4-yl)ethoxy)pyrimidin-4-yl)-2,8-diazaspiro[4.5]decane-3-carboxylic acid], for which the IC50 fell in the range of 50 to 300 nM.

Consider `COc1ccc(C)c(-c2ccc([C@@H](Oc3cc(N4CCC5(CC4)CN[C@H](C(=O)O)C5)nc(N)n3)C(F)(F)F)cc2)c1` [Example 55p, (S)-8-(2-amino-6-((R)-2,2,2-trifluoro-1-(5′-methoxy-2′-methyl-[1,1′-biphenyl]-4-yl)ethoxy)pyrimidin-4-yl)-2,8-diazaspiro[4.5]decane-3-carboxylic acid], for which the IC50 lay within 50 to 300 nM. On the same count and under the same terms, the same measure for `COc1ccc(-c2ccc([C@@H](Oc3cc(N4CCC5(CC4)CN[C@H](C(=O)O)C5)nc(N)n3)C(F)(F)F)cc2)cc1OC` [Example 55q, (S)-8-(2-amino-6-((R)-1-(3′,4′-dimethoxy-[1,1′-biphenyl]-4-yl)-2,2,2-trifluoroethoxy)pyrimidin-4-yl)-2,8-diazaspiro[4.5]decane-3-carboxylic acid]: under 50 nM. Same read-out and setting: the same measure for `COc1cc(-c2ccc([C@@H](Oc3cc(N4CCC5(CC4)CN[C@H](C(=O)O)C5)nc(N)n3)C(F)(F)F)cc2)ccc1C(=O)N1CCCC1` [Example 55r, (S)-8-(2-amino-6-((R)-2,2,2-trifluoro-1-(3′-methoxy-4′-(pyrrolidine-1-carbonyl)-[1,1′-biphenyl]-4-yl)ethoxy)pyrimidin-4-yl)-2,8-diazaspiro[4.5]decane-3-carboxylic acid]: 50 to 300 nM; for `Nc1nc(O[C@H](c2ccc(-c3ccc4c(c3)COC4=O)cc2)C(F)(F)F)cc(N2CCC3(CC2)CN[C@H](C(=O)O)C3)n1` [Example 55s, (S)-8-(2-amino-6-((R)-2,2,2-trifluoro-1-(4-(1-oxo-1,3-dihydroisobenzofuran-5-yl)phenyl)ethoxy)pyrimidin-4-yl)-2,8-diazaspiro[4.5]decane-3-carboxylic acid]: under 50 nM; for `Nc1nc(O[C@H](c2ccc(-c3ccc4[nH]c(=O)ccc4c3)cc2)C(F)(F)F)cc(N2CCC3(CC2)CN[C@H](C(=O)O)C3)n1` [Example 55t, (S)-8-(2-amino-6-((R)-2,2,2-trifluoro-1-(4-(2-oxo-1,2-dihydroquinolin-6-yl)phenyl)ethoxy)pyrimidin-4-yl)-2,8-diazaspiro[4.5]decane-3-carboxylic acid]: 50 to 300 nM.

As for `Cn1c(=O)ccc2cc(-c3ccc([C@@H](Oc4cc(N5CCC6(CC5)CN[C@H](C(=O)O)C6)nc(N)n4)C(F)(F)F)cc3)ccc21` [Example 55u, (S)-8-(2-amino-6-((R)-2,2,2-trifluoro-1-(4-(1-methyl-2-oxo-1,2-dihydroquinolin-6-yl)phenyl)ethoxy)pyrimidin-4-yl)-2,8-diazaspiro[4.5]decane-3-carboxylic acid], the IC50 lay within 50 to 300 nM.

Consider `Cc1nn(C)c2ccc(-c3ccc([C@@H](Oc4cc(N5CCC6(CC5)CN[C@H](C(=O)O)C6)nc(N)n4)C(F)(F)F)cc3)cc12` [Example 55x, (S)-8-(2-amino-6-((R)-1-(4-(1,3-dimethyl-1H-indazol-5-yl)phenyl)-2,2,2-trifluoroethoxy)pyrimidin-4-yl)-2,8-diazaspiro[4.5]decane-3-carboxylic acid], for which the IC50 lay within 50 to 300 nM. With `Cc1cn(C)c2ccc(-c3ccc([C@@H](Oc4cc(N5CCC6(CC5)CN[C@H](C(=O)O)C6)nc(N)n4)C(F)(F)F)cc3)cc12` [Example 55y, (S)-8-(2-amino-6-((R)-1-(4-(1,3-dimethyl-1H-indol-5-yl)phenyl)-2,2,2-trifluoroethoxy)pyrimidin-4-yl)-2,8-diazaspiro[4.5]decane-3-carboxylic acid], the IC50 fell in the range of 50 to 300 nM.

On to `COc1cc(-c2ccc([C@@H](Oc3cc(N4CCC5(CC4)CN[C@H](C(=O)O)C5)nc(N)n3)C(F)(F)F)cc2)cc(C(F)(F)F)c1` [Example 55z, (S)-8-(2-amino-6-((R)-2,2,2-trifluoro-1-(3′-methoxy-5′-(trifluoromethyl)-[1,1′-biphenyl]-4-yl)ethoxy)pyrimidin-4-yl)-2,8-diazaspiro[4.5]decane-3-carboxylic acid], for which the half-maximal inhibitory concentration (IC50) fell in the range of 50 to 300 nM. With `Nc1nc(O[C@H](c2ccc(-c3ccc4c(c3)NCCN4)cc2)C(F)(F)F)cc(N2CCC3(CC2)CN[C@H](C(=O)O)C3)n1` [Example 56, (S)-8-(2-amino-6-((R)-2,2,2-trifluoro-1-(4-(1,2,3,4-tetrahydroquinoxalin-6-yl)phenyl)ethoxy)pyrimidin-4-yl)-2,8-diazaspiro[4.5]decane-3-carboxylic acid], the IC50 lay within 50 to 300 nM. Take `Nc1nc(O[C@H](c2ccc3c(c2)CNCN3)C(F)(F)F)cc(N2CCC3(CC2)CN[C@H](C(=O)O)C3)n1` [Example 58, (S)-8-(2-amino-6-((R)-2,2,2-trifluoro-1-(1,2,3,4-tetrahydroquinazolin-6-yl)ethoxy)pyrimidin-4-yl)-2,8-diazaspiro[4.5]decane-3-carboxylic acid]: the IC50 is 50 to 300 nM. `Nc1nc(O[C@H](c2ccc(Br)cc2)C(F)(F)F)cc(N2CCC3(CC2)CN[C@H](C(=O)O)C3)n1` [Example 59, (S)-8-(2-amino-6-((R)-1-(4-bromophenyl)-2,2,2-trifluoroethoxy)pyrimidin-4-yl)-2,8-diazaspiro[4.5]decane-3-carboxylic acid]: the IC50 lay within 300 to 3000 nM. For `Nc1nc(O[C@H](c2ccc3ccccc3c2)C(F)(F)F)cc(N2CCC3(CC2)CN[C@H](C(=O)O)C3)n1` [Example 59b, (S)-8-(2-amino-6-((R)-2,2,2-trifluoro-1-(naphthalen-2-yl)ethoxy)pyrimidin-4-yl)-2,8-diazaspiro[4.5]decane-3-carboxylic acid], the IC50 was 300 to 3000 nM. On the same count and under the same terms, the same measure for `Cc1cc(-c2ccc3ncc(F)cc3c2)ccc1[C@@H](Oc1cc(N2CCC3(CC2)CN[C@H](C(=O)O)C3)nc(N)n1)C(F)(F)F` [Example 59c, (S)-8-(2-amino-6-((R)-2,2,2-trifluoro-1-(4-(3-fluoroquinolin-6-yl)-2-methylphenyl)ethoxy)pyrimidin-4-yl)-2,8-diazaspiro[4.5]decane-3-carboxylic acid]: 50 to 300 nM; for `CCc1cc(-c2ccc3ncc(F)cc3c2)ccc1[C@@H](Oc1cc(N2CCC3(CC2)CN[C@H](C(=O)O)C3)nc(N)n1)C(F)(F)F` [Example 59d, (S)-8-(2-amino-6-((R)-1-(2-ethyl-4-(3-fluoroquinolin-6-yl)phenyl)-2,2,2-trifluoroethoxy)pyrimidin-4-yl)-2,8-diazaspiro[4.5]decane-3-carboxylic acid]: 50 to 300 nM.
